Data set [1] addresses T1, Rhodesain (Trypanosoma brucei rhodesiense, UniProt Q95PM0). As to the kind of experiment: Inhibition of Trypanosoma brucei rhodesain assessed as fluorescence using Cbz-Phe-Arg-AMC as substrate measured at second inhibition step by fluorometric enzyme assays.
For data set [2], the system named is Trypanosoma brucei brucei. As to the kind of experiment: Antiprotozoal activity against Trypanosoma brucei brucei BS449 assessed as luminescence incubated for 24 to 48 hrs by ATPlite assay. It counts as functional, organism-based.
The test system of data set [3] is J774.1. Briefly: Cytotoxicity against mouse J774.1 cells by Alamar blue assay. It counts as functional.
Data set [4] concerns HeLa. Briefly: Cytotoxicity against human HeLa cells by Alamar blue assay. It counts as functional.
Data set [5] deals with Proteasome Macropain subunit (Homo sapiens) (UniProt P49721). Briefly: Inhibition of trypsin-like activity of human 20S proteasome at 11 uM using boc-Leu-Arg-Arg-AMC as fluorogenic substrate by microplate reader relative to control.
Data set [6] is filed under the species Homo sapiens. Briefly: Inhibition of caspase-like activity of human 20S proteasome at 11 uM using Cbz-Leu-Leu-Glu-AMC as fluorogenic substrate by microplate reader relative to control.
For data set [7], the species on record is Homo sapiens. Briefly: Inhibition of alpha-chymotrypsin-like activity of human 20S proteasome at 11 uM using Succ-Leu-Leu-Val-Tyr-AMC as fluorogenic substrate by microplate reader relative to control.
Data set [8] has as its system Dengue virus. Briefly: Inhibition of Dengue virus NS2B-NS3 protease assessed as fluorescent emission using boc-Gly-Arg-Arg-AMC at 11 uM by microplate reader relative to control.
Data set [9] concerns Trypanosoma brucei brucei. Briefly: Antiprotozoal activity against Trypanosoma brucei brucei TC211 assessed as luminescence incubated for 24 to 48 hrs by ATPlite assay. It is filed as functional, organism-based.
The target in data set [10] is Rhodesain (Trypanosoma brucei rhodesiense) (UniProt Q95PM0). Briefly: Binding affinity to Trypanosoma brucei rhodesain assessed as protein-ligand adducts by MALDI-TOF MS analysis.
Data set [11] addresses T1, Rhodesain. Briefly: Inhibition of Trypanosoma brucei rhodesain assessed as fluorescence using Cbz-Phe-Arg-AMC as substrate measured using Dixon equation by fluorometric enzyme assays.
Data set [12] concerns the target Rhodesain (Trypanosoma brucei rhodesiense) (UniProt Q95PM0). As to the kind of experiment: Inhibition of Trypanosoma brucei rhodesain assessed as rate constant of association using Cbz-Phe-Arg-AMC as substrate by fluorometric enzyme assays.
The target is the same in data set [13]. Briefly: Inhibition of Trypanosoma brucei rhodesain assessed as rate constant of dissociation of the final complex using Cbz-Phe-Arg-AMC as substrate by fluorometric enzyme assays.
Data set [14] has as its target T2, Procathepsin L (Homo sapiens, UniProt P07711). Briefly: Inhibition of human liver CatL assessed as fluorescence using Cbz-Phe-Arg-AMC as substrate measured at second inhibition step by fluorometric enzyme assays.
Data set [15] deals with T2, Procathepsin L. Briefly: Inhibition of human CatL assessed as fluorescence using Cbz-Phe-Arg-AMC as substrate measured using Dixon equation by fluorometric enzyme assays. The arrangement: species or system Liver.
The subject of data set [16] is cathepsin L (CatL) versus rhodesain. As to the kind of experiment: Selectivity index, ratio of Ki for human liver CatL to Trypanosoma brucei rhodesain. Conditions: read-out: Selectivity Index.
Data set [17] deals with Cathepsin B (Homo sapiens, UniProt P07858). Briefly: Inhibition of human liver CatB assessed as fluorescence using Cbz-Phe-Arg-AMC as substrate at 11 uM by fluorometric enzyme assays.
Data set [18] deals with Rhodesain (Trypanosoma brucei rhodesiense) (UniProt Q95PM0). As to the kind of experiment: Reversible inhibition of Trypanosoma brucei rhodesain assessed as reversibility by measuring residual enzymatic activity using Cbz-Phe-Arg-AMC as substrate after 1 hr by fluorometry based dialysis experiment relative to control.

The structures appear in SMILES notation. Active and inactive are the calls of the source. No cut-off for these calls is given here. Some results are limits rather than exact numbers.

T1 sequence (Q95PM0 whole entry): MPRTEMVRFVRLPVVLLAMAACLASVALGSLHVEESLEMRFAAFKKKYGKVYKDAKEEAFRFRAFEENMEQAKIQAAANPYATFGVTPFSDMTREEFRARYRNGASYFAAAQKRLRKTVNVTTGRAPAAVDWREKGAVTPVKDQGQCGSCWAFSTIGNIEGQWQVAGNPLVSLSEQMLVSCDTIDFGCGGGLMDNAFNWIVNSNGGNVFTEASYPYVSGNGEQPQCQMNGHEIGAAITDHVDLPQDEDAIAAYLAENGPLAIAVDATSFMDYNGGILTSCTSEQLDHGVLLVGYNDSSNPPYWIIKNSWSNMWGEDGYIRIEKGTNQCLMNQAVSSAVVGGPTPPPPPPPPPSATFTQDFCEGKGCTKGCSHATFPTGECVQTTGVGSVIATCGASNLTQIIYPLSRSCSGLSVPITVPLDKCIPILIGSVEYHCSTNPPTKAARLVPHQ
Rhodesain (Trypanosoma brucei rhodesiense), sequence (Q95PM0 1-450): as the sequence (Q95PM0 whole entry) above
T2 sequence (P07711 whole entry): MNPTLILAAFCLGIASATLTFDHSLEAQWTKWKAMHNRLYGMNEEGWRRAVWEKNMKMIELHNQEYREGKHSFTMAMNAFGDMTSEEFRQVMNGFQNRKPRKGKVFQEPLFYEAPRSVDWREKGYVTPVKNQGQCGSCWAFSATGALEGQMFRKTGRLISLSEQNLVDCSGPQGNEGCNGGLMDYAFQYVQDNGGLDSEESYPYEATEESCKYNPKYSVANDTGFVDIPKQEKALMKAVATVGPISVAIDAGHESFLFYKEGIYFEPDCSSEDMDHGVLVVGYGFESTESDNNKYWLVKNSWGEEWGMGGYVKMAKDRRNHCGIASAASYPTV
Proteasome Macropain subunit (Homo sapiens), sequence (P49721 whole entry): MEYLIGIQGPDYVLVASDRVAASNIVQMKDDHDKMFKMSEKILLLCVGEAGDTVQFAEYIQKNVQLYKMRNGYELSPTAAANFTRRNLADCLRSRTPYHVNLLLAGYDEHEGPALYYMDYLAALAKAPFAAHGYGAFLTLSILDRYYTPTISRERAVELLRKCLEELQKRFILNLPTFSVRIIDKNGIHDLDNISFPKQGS

`Cc1cccc(C[C@H](NC(=O)c2cc(F)cc(F)c2)C(=O)N[C@H](/C=C(\F)S(=O)(=O)Cc2ccccc2)CCc2ccccc2)c1`: the inhibition constant (Ki) in data set [1] turned out to be 380 nM.
For `CN1CCN(C(=O)N[C@@H](Cc2ccccc2)C(=O)N[C@H](/C=C(\F)S(=O)(=O)c2ccccc2)CSCc2ccccc2)CC1`, the concentration for a half-maximal effect (EC50) in [2] amounted to 3000 nM. Further, the CC50 in [3] amounted to 8700 nM; in [4] it was 8000 nM. For the same compound, the inhibition in data set [5] was 14%; in data set [7], 71%; in data set [8] it was 13%. Besides, the inhibition result in data set [6] was “inactive”.
On to `Cc1ccc(C[C@H](NC(=O)c2ccc3c(c2)OCCO3)C(=O)N[C@H](/C=C(\F)S(=O)(=O)c2ccccc2)CCc2ccccc2)cc1`, for which the EC50 in data set [9] was found to be 800 nM. In data set [4], this compound gave a cytotoxic concentration (CC50) greater than 100000 nM.
For the compound `Cc1ccc(C[C@H](NC(=O)c2ccncc2)C(=O)N[C@H](/C=C/S(=O)(=O)Oc2ccccc2)CCc2ccccc2)cc1`, the Ki in data set [1] amounted to 0.45 nM.
Turning to `O=C(N[C@@H](Cc1ccccc1)C(=O)N[C@H](/C=C(/F)S(=O)(=O)Oc1ccccc1)CCc1ccccc1)c1ccncc1`, in data set [1], the Ki was determined as 525 nM. Moreover, the result in data set [10] was Active.
`Cc1cccc(C[C@H](NC(=O)c2cc(F)cc(F)c2)C(=O)N[C@H](/C=C(\F)S(=O)(=O)Oc2ccccc2)CCc2ccccc2)c1`: the Ki in data set [1] is 152 nM; in [11], 21 nM. In addition, the K was 0.055 s⁻¹ in data set [12] and 0.01 s⁻¹ in data set [13].
Take `O=C(N[C@@H](Cc1ccccc1)C(=O)N[C@H](/C=C(\F)S(=O)(=O)Oc1ccccc1)CCc1ccccc1)OCc1ccccc1`: the inhibition constant Ki in data set [1] was 158 nM. Also, the outcome in data set [10] was Active.
As to `Cc1ccc(C[C@H](NC(=O)c2cc[n+]([O-])cc2)C(=O)N[C@H](/C=C/S(=O)(=O)Oc2ccccc2)CCc2ccccc2)cc1`, the inhibitory constant (Ki) in data set [1] was 1.5 nM.
Take `Cc1cccc(C[C@H](NC(=O)c2ccncc2)C(=O)N[C@H](/C=C(\F)S(=O)(=O)Oc2ccccc2)CCc2ccccc2)c1`: the inhibition constant Ki in data set [1] came out at 94 nM; in data set [11] it was 7 nM; in [14], 266 nM; in data set [15], 30 nM. Also, the selectivity ratio in data set [16] was found to be 4. In addition, the inhibition in [17] amounted to 50%. For the same compound, the figures for the K in data set [12] and in data set [13] were 0.062 s⁻¹ and 0.005 s⁻¹, respectively.
Take `O=C(N[C@@H](Cc1ccccc1)C(=O)N[C@H](/C=C(\F)S(=O)(=O)Cc1ccccc1)CCc1ccccc1)c1cc(F)cc(F)c1`: the inhibition constant (Ki) in data set [1] came to 124 nM.
On to `Cc1ccc(C[C@H](NC(=O)c2cc(F)cc(F)c2)C(=O)N[C@H](/C=C(\F)S(=O)(=O)c2ccccc2)CCc2ccccc2)cc1`, for which, in data set [1], the Ki amounted to 100 nM.
With `Cc1cccc(C[C@H](NC(=O)c2ccncc2)C(=O)N[C@H](/C=C(\F)S(=O)(=O)Cc2ccccc2)CCc2ccccc2)c1`, the results for the Ki in [1] and in data set [14] were 61 nM and 122 nM, respectively. Further, the selectivity ratio in data set [16] came to 2.
For `Cc1cccc(C[C@H](NC(=O)c2cc(F)cc(F)c2)C(=O)N[C@H](/C=C(\F)S(=O)(=O)c2ccccc2)CCc2ccccc2)c1`, the inhibition constant (Ki) in [1] amounted to 329 nM.
Take `Cc1cccc(C[C@H](NC(=O)c2ccc3c(c2)OCCO3)C(=O)N[C@H](/C=C(\F)S(=O)(=O)c2ccccc2)CCc2ccccc2)c1`: the inhibition constant Ki in [1] amounted to 35 nM.
With `Cc1ccc(C[C@H](NC(=O)c2ccncc2)C(=O)N[C@H](/C=C(\F)S(=O)(=O)c2ccccc2)CCc2ccccc2)cc1`, the Activity in [18] is 29%. In addition, the concentration for a half-maximal effect (EC50) in [9] worked out at 1900 nM. The compound further came in with a CC50 in [4] greater than 100000 nM. Also, the inhibition in [5] is 12%; in data set [6] it was 28%; in [7], 13%.
In the case of `CN1CCN(C(=O)N[C@@H](Cc2ccccc2)C(=O)N[C@H](/C=C(\F)S(=O)(=O)c2ccccc2)CCc2ccccc2)CC1`, in data set [10], the outcome was Active. Also, the EC50 in data set [2] worked out at 12500 nM. For the same compound, the CC50 is 38000 nM in data set [3] and 10000 nM in [4]. Also, the inhibition result in data set [5] and in [8] was “inactive” throughout. In addition, the inhibition was found to be 16% in data set [6] and 13% in data set [7].
On to `Cc1ccc(C[C@H](NC(=O)c2ccc3c(c2)OCCO3)C(=O)N[C@H](/C=C(\F)S(=O)(=O)Oc2ccccc2)CCc2ccccc2)cc1`, for which the inhibition constant (Ki) came out at 98 nM in [1], 7 nM in [11], 348 nM in [14] and 39 nM in [15]. In addition, the selectivity ratio in [16] turned out to be 6. In addition, the inhibition in data set [17] is 14%; in [6], 31%; in data set [7] it was 22%; in data set [8], 11%. Moreover, the K in data set [12] worked out at 0.065 s⁻¹; in data set [13], 0.005 s⁻¹. Moreover, in [2], the half-maximal effective concentration (EC50) is 140 nM. Also, the CC50 in [4] is greater than 100000 nM. The inhibition entry in data set [5] is “inactive”.
As for `O=C(N[C@H](/C=C(\F)S(=O)(=O)Oc1ccccc1)CCc1ccccc1)[C@H](Cc1ccccc1)NC(=O)N1CCNCC1`, in data set [1], the inhibitory constant (Ki) was found to be 192 nM.
Take `Cc1ccc(C[C@H](NC(=O)c2ccc3c(c2)OCCO3)C(=O)N[C@H](/C=C(\F)S(=O)(=O)Cc2ccccc2)CCc2ccccc2)cc1`: the results for the Ki in data set [1] and in data set [14] were 14 nM and 76 nM, respectively. Also, the selectivity ratio in data set [16] worked out at 6. The inhibition in data set [17] amounted to 8%.
As for `Cc1cccc(C[C@H](NC(=O)c2ccncc2)C(=O)N[C@H](/C=C(\F)S(=O)(=O)c2ccccc2)CCc2ccccc2)c1`, the results for the inhibition constant Ki in [1] and in data set [14] were 25 nM and 49 nM, respectively.
With `O=C(N[C@@H](Cc1ccccc1)C(=O)N[C@H](/C=C(\F)S(=O)(=O)Cc1ccccc1)CCc1ccccc1)c1ccncc1`, the Ki was found to be 53 nM in [1] and 226 nM in data set [14]. The inhibition in data set [17] was determined as 44%.
Regarding `O=C(N[C@@H](Cc1ccccc1)C(=O)N[C@H](/C=C(\F)S(=O)(=O)Oc1ccccc1)CCc1ccccc1)c1ccc2c(c1)OCCO2`, the Ki was found to be 45 nM in [1] and 9 nM in [11]. Further, the K is 0.045 s⁻¹ in data set [12] and 0.011 s⁻¹ in data set [13].
Regarding `CN1CCN(C(=O)N[C@@H](Cc2ccccc2)C(=O)N[C@H](/C=C(\F)S(=O)(=O)Oc2ccccc2)CCc2ccccc2)CC1`, the Ki in data set [1] was found to be 108 nM. For the same compound, the outcome in data set [10] was Active.
In the case of `CSCC[C@@H](/C=C(\F)S(=O)(=O)c1ccccc1)NC(=O)[C@H](Cc1ccccc1)NC(=O)N1CCN(C)CC1`, the EC50 in data set [2] was found to be 14100 nM. Moreover, the half-maximal cytotoxic concentration (CC50) was 43000 nM in [3] and 77000 nM in data set [4]. Moreover, the inhibition result in [5] and in [7] was “inactive” in each case. Further, the inhibition in [6] is 18%.
Regarding `Cc1ccc(C[C@H](NC(=O)c2cc(F)cc(F)c2)C(=O)N[C@H](/C=C(\F)S(=O)(=O)Oc2ccccc2)CCc2ccccc2)cc1`, the Ki in data set [1] stood at 34 nM; in data set [11], 5 nM. Besides, the K turned out to be 0.049 s⁻¹ in data set [12] and 0.009 s⁻¹ in [13].
Take `O=C(N[C@@H](Cc1ccccc1)C(=O)N[C@H](/C=C(\F)S(=O)(=O)c1ccccc1)CCc1ccccc1)c1cc(F)cc(F)c1`: the inhibitory constant (Ki) in [1] turned out to be 350 nM.
As to `CN1CCN(C(=O)N[C@@H](Cc2ccccc2)C(=O)N[C@H](/C=C/S(=O)(=O)c2ccccc2)CCc2ccccc2)CC1` [K-777], in data set [2], the concentration for a half-maximal effect (EC50) amounted to 180 nM. Besides, the values for the half-maximal cytotoxic concentration (CC50) in data set [3] and in data set [4] were 41000 nM and greater than 10000 nM, respectively.
On to `O=C(N[C@@H](Cc1ccccc1)C(=O)N[C@H](/C=C(\F)S(=O)(=O)c1ccccc1)CCc1ccccc1)c1ccc2c(c1)OCCO2`, for which the inhibition result in data set [5] and in [7] was “inactive” in each case. In data set [6], the inhibition is 26%.
`Cc1cccc(C[C@H](NC(=O)c2ccc3c(c2)OCCO3)C(=O)N[C@H](/C=C(\F)S(=O)(=O)Cc2ccccc2)CCc2ccccc2)c1`: in data set [1], the Ki worked out at 92 nM.
As for `Cc1cccc(C[C@H](NC(=O)c2ccc3c(c2)OCCO3)C(=O)N[C@H](/C=C(\F)S(=O)(=O)Oc2ccccc2)CCc2ccccc2)c1`, the inhibition constant Ki in data set [1] was 59 nM; in data set [11], 10 nM. The figures for the K in [12] and in data set [13] were 0.074 s⁻¹ and 0.015 s⁻¹, respectively.
On to `O=C(N[C@@H](Cc1ccccc1)C(=O)N[C@H](/C=C(\F)S(=O)(=O)Cc1ccccc1)CCc1ccccc1)c1ccc2c(c1)OCCO2`, for which the inhibitory constant (Ki) in data set [1] was 46 nM.
The same measure, in the same setting: the value for `Cc1ccc(C[C@H](NC(=O)c2cc(F)cc(F)c2)C(=O)N[C@H](/C=C(\F)S(=O)(=O)Cc2ccccc2)CCc2ccccc2)cc1` was 29 nM.

The record behind these values is ChEMBL document CHEMBL4831511, “Fluorovinylsulfones and -Sulfonates as Potent Covalent Reversible Inhibitors of the Trypanosomal Cysteine Protease Rhodesain: Structure-Activity Relationship, Inhibition Mechanism, Metabolism, and In Vivo Studies” (J Med Chem, 2021).
